Measurements reported in ChEMBL document CHEMBL1134087, “Inhibitors of the bacterial cell wall biosynthesis enzyme MurC” (Bioorg Med Chem Lett, 2001).

Experiments:
[1] = Tested for inhibitory activity against UDP-N-acetylmuramoyl-L-alanine synthetase from Escherichia coli by malachite green assay
[2] = Tested for inhibitory activity against UDP-N-acetylmuramoyl-L-alanine synthetase from Escherichia coli by malachite green assay; Inactive

Row | IC50 [1] [µM] | IC50 [2] | SMILES
1 | 0.049 | – | CC(=O)N[C@H]1C(OP(=O)(O)OP(=O)(O)OC[C@H]2O[C@@H](n3ccc(=O)[nH]c3=O)[C@H](O)[C@@H]2O)O[C@H](CO)[C@@H](O)[C@@H]1OCP(=O)(O)CC(C)C(=O)O (some centres undefined)
2 | 60 | – | CC(CP(=O)(O)COCCCOP(=O)(O)OP(=O)(O)OC[C@H]1O[C@@H](n2ccc(=O)[nH]c2=O)[C@H](O)[C@@H]1O)C(=O)O (some centres undefined)
3 | > 100 | – | CC(=O)N[C@H]1[C@@H](OP(=O)(O)O)O[C@H](CO)[C@@H](O)[C@@H]1OCP(=O)(O)CC(C)C(=O)O (some centres undefined)
4 | – | Not Active | CC(CP(=O)(O)COCCCOP(=O)(O)O)C(=O)O (centres undefined)
